Measured values as given in patent publication US6686350B1, “Cell adhesion inhibitors” (Biogen, Inc., priority 1996, dated 2004).

Biological target: T1, VLA-4 (Homo sapiens, UniProt P05556+P13612)
T1 construct: endogenous in cells; host or cells: Jurkat cells
Test: VLA-4 direct binding assay (VCAM-IgG alkaline phosphatase conjugate binding to Jurkat cells)
Conditions: Table 1, Structure-Activity; assay and unit inferred; read-out: Act
From the text: A direct binding assay may also be employed to quantitate the inhibitory activity of the compounds of this invention. (“DBA”) In direct binding assays, for example, a VCAM-IgG fusion protein containing the first two immunoglobulin domains of VCAM (D1D2) attached above the hinge region of an IgG1 molecule (“VCAM 2D-IgG”), is conjugated to a marker enzyme, such as alkaline phosphatase (“AP”). The synthesis of this VCAM-IgG fusion is described in PCT publication WO 90/13300, the disclosure of which is herein incorporated by reference. The conjugation of that fusion to a marker enzyme can be achieved by cross-linking methods well-known in the art.
The VCAM-IgG enzyme conjugate is then placed in the wells of a multi-well filtration plate, such as that contained in the Millipore Multiscreen Assay System (Millipore Corp., Bedford, Mass.). Varying concentrations of the test inhibitory compound are then added to the wells followed by addition of VLA-4-expressing cells. The cells, compound and VCAM-IgG enzyme conjugate are mixed together and allowed to incubate at room temperature.
Following incubation, the wells are vacuum drained, leaving behind the cells and any bound VCAM. Quantitation of bound VCAM is determined by adding an appropriate calorimetric substrate for the enzyme conjugated to VCAM-IgG and determining the amount of reaction product. Decreased reaction product indicates increased binding inhibitory activity. The protocol is described more specifically below:
1. Block a 96 well Millipore Multiscreen Assay System filtration plate^1 with 200:l/well of blocking buffer (1×Phosphate Buffered Saline, 0.1%Tween 20, 1%BSA) for at least 1 hour at room temperature.
2. Drain the plate with the vacuum manifold, and wash with 200 μl/well of assay buffer (Tris Buffered Saline, 0.1% BSA, 2 mM glucose, 10 mM HEPES, pH 7.5) draining the plate in between. Repeat twice. Then blot the plate bottom on paper to remove excess buffer.
3. Prepare a 4 μg/ml VCAMIg-AP solution (Alkaline phosphatase coupled to VCAMIg) in assay buffer and filter with a 0.2:low protein binding syringe filter (Gelman Sciences #4454). From this stock, prepare a 0.4 μg/ml working solution of VCAMIg-AP in assay buffer. Add 25:l of 0.4 μg/ml VCAMIg-AP to every well.
5. Prepare dilutions of compounds to be tested in assay buffer. Concentrations should be 4× the desired final concentration and run in triplicate. Add 25 μl of the compound dilutions to designated wells.
7. Jurkat cells are centrifuged to remove cell culture media and washed once in assay buffer. Resuspend the washed Jurkat cells to a concentration of 8×10^6/ml in assay buffer containing 2 mM MnCl2. Pipeting the mixture up and down to ensure a uniform cell suspension. Add 50:l of cell suspension to each well except the NSB wells.
8. Gently tap the sides of the plate to mix well contents. Incubate the plate for 60 minutes at room temperature (RT).
9. Place the plate on the vacuum manifold to drain the well contents. Wash twice with 100 μl/well of wash buffer (assay buffer containing 1 mM MnCl2). Drain the plate and blot on paper towels.
10. Add 10 mg/ml of 4-Nitro phenyl phosphate to Substrate buffer (0.1M glycine, 1 mM ZnCl2, 1 mM MgCl2, pH 10.5). Add 100 μl/well and incubate for exactly 30 minutes at RT.
11. To stop the reaction, add 100 μl/well of 3N NaOH.
12. Read the 96-well plate in a Molecular Devices ELISA platereader at 405 nm. Analyze data with SoftMax software.

T1 sequence (P13612 34-1032): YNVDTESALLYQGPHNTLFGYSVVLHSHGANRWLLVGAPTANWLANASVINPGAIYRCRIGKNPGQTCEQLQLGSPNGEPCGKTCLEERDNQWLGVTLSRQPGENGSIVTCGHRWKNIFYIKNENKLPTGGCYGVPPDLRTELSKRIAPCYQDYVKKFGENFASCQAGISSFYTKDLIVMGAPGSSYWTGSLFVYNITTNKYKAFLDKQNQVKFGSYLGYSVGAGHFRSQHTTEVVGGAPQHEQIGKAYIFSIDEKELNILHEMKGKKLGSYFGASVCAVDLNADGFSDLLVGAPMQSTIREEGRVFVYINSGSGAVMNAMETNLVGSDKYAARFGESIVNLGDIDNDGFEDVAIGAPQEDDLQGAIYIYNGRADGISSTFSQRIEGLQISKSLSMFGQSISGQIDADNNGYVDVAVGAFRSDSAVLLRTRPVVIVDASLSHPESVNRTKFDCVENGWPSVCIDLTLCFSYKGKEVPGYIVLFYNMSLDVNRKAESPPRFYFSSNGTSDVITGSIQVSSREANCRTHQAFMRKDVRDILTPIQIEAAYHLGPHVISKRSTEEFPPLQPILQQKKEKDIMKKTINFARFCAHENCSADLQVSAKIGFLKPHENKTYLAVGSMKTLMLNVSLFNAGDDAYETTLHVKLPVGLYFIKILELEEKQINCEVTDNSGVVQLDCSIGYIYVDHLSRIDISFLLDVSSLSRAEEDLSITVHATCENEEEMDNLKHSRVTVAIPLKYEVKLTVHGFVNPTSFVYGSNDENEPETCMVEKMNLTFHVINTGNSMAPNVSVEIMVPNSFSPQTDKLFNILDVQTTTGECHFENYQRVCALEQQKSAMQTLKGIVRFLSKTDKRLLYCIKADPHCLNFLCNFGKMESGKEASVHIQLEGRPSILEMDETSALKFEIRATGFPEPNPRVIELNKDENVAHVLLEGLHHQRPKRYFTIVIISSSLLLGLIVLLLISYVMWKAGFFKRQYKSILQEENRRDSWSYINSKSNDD
T1 sequence (P05556 21-798): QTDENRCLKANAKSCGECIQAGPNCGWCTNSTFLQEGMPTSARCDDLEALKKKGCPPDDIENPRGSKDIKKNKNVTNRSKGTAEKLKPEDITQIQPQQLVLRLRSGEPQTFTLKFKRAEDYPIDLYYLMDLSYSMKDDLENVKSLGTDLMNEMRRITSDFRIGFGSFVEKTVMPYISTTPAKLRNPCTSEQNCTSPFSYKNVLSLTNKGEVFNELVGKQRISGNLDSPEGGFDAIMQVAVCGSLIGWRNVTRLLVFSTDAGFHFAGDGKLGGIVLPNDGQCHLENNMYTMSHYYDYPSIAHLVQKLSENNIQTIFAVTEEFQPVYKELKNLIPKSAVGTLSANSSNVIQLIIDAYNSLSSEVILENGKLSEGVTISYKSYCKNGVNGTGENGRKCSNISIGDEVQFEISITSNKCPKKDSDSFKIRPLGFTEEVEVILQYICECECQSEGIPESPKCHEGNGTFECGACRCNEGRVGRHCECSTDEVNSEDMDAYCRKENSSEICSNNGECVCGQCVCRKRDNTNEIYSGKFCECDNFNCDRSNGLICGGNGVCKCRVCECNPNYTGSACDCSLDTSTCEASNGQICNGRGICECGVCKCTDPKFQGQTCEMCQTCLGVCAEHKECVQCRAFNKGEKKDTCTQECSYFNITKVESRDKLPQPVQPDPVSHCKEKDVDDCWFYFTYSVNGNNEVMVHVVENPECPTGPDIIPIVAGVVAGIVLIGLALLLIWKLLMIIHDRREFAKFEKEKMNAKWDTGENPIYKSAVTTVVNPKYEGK

Row | SMILES | IC50 [nM]
1 | Cc1ccccc1NC(=O)Nc1ccc(NC(=O)C2CC2C(=O)N[C@@H](CC(=O)O)c2ccc3c(c2)OCO3)cc1 (stereo partly drawn) [SX25] | 810
2 | Cc1ccccc1NC(=O)Nc1ccc(N2CC[C@@H](CC(=O)N[C@H](C)CC(=O)O)C2=O)cc1 [SX26] | 769
3 | COc1ccc(C(CC(=O)O)NC(=O)C(CC(=O)NCc2ccccc2)CC(C)C)cc1 (stereo not drawn) [SX28] | 717
4 | COc1ccc([C@H](CC(=O)O)NC(=O)C(CC(=O)Nc2ccc(COCc3ccccc3)cc2)CC(C)C)cc1OC (stereo partly drawn) [SX29] | 700
5 | COc1ccc(C(CC(=O)O)NC(=O)[C@@H](CC(=O)Nc2ccc(COc3ccccc3C)cc2)CC(C)C)cc1OC (stereo partly drawn) [SX31] | 680
6 | COc1ccc(C(CC(=O)O)NC(=O)C(CC(=O)Nc2ccc(CCSc3ccccc3C)cc2)CC(C)C)cc1OC (stereo not drawn) [SX32] | 660
7 | Cc1ccccc1NC(=O)Nc1ccc(CNC(=O)C(CC(=O)NC(CC(=O)O)c2ccc3c(c2)OCO3)CC(C)C)cc1 (stereo not drawn) [SX34] | 500
8 | Cc1ccccc1NC(=O)Nc1ccc(NC(=O)CCC(=O)N[C@H](C)CC(=O)O)cc1 [SX35] | 468
9 | COc1ccc([C@H](CC(=O)O)NC(=O)C(O)CC(=O)Nc2ccc(NC(=O)Nc3ccccc3C)cc2)cc1OC (stereo partly drawn) [SX38] | 404
10 | COc1ccc([C@H](CC(=O)O)NC(=O)C(CC(=O)Nc2ccc(CCc3ccccc3C)cc2)CC(C)C)cc1OC (stereo partly drawn) [SX39] | 397
11 | COc1ccc([C@H](CC(=O)O)NC(=O)C(CC(=O)Nc2ccc(/C=C/c3ccccc3C)cc2)CC(C)C)cc1OC (stereo partly drawn) [SX40] | 335
12 | COc1ccc([C@H](CC(=O)O)NC(=O)C(CC(=O)Nc2ccc(NC(=O)Nc3ccccc3)cc2)CC(C)C)cc1OC (stereo partly drawn) [SX41] | 310
13 | COc1ccc([C@H](CC(=O)O)NC(=O)C(CC(=O)Nc2ccc(NC(=O)NS(=O)(=O)c3ccccc3C)cc2)CC(C)C)cc1OC (stereo partly drawn) [SX42] | 298
14 | CC(CC(=O)Nc1ccc(NC(=O)Nc2ccccc2)cc1)C(=O)N[C@H](C)CC(=O)O (stereo partly drawn) [SX43] | 247
15 | COc1ccc(C(CC(=O)O)NC(=O)[C@@H](CC(=O)Nc2ccc(NC(=O)Nc3ccccc3C)cc2)CC(C)C)cc1OC (stereo partly drawn) [SX44] | 233
16 | COc1ccc([C@H](CC(=O)O)NC(=O)CCC(=O)Nc2ccc(NC(=O)Nc3ccccc3)c(O)c2)cc1OC [SX45] | 216
17 | COc1ccc([C@H](CC(=O)O)NC(=O)C(CC(=O)Nc2ccc(NC(=O)Nc3ncccc3C)cc2)CC(C)C)cc1OC (stereo partly drawn) [SX46] | 200
18 | COc1ccc(C(CC(=O)O)NC(=O)C(CC(=O)Nc2ccc(NC(=O)Nc3ccccc3C)cc2)NS(C)(=O)=O)cc1OC (stereo not drawn) [SX47] | 196
19 | Cc1ccccc1NC(=O)Nc1ccc(N(C)C(=O)CCC(=O)N[C@H](C)CC(=O)O)cc1 [SX48] | 195
20 | Cc1ccccc1NC(=O)Nc1ccc(NC(=O)CC(CC(C)C)C(=O)NC(C)CC(=O)O)cc1 (stereo not drawn) [SX50] | 167
21 | COc1ccc(C(CC(=O)O)NC(=O)CCC(=O)Nc2ccc(NC(=O)Nc3ccccc3C)cc2)cc1OC (stereo not drawn) [SX51] | 142
22 | COc1ccc([C@H](CC(=O)O)NC(=O)C(C)CC(=O)Nc2ccc(NC(=O)Nc3ccccc3)cc2)cc1OC (stereo partly drawn) [SX53] | 65
23 | C=CC[C@H](CC(=O)O)NC(=O)C(C)CC(=O)Nc1ccc(NC(=O)Nc2ccccc2C)cc1 (stereo partly drawn) [SX54] | 58.5
24 | Cc1ccccc1NC(=O)Nc1ccc(NC(=O)C[C@@H](CC(C)C)C(=O)NC(CC(=O)O)c2ccc3c(c2)OCO3)cc1 (stereo partly drawn) [SX56] | 55
25 | Cc1ccccc1NC(=O)Nc1ccc(CC(=O)Nc2ccccc2OCCC(=O)O)cc1 [UX1] | 4500

Biological target: IIb/IIIa (Homo sapiens, UniProt P05106+P08514)
Test: IIb/IIIa inhibitory activity (receptor-ligand binding or platelet aggregation)
Conditions: qualitative statement
From the text: In a basic embodiment, therefore, one skilled in the art first identifies a compound having IIb/IIIa inhibitory activity. Compounds having IIb/IIIa inhibitory activity are well known to those skilled in the art, and are readily available, see, e.g., Table 2 and the references incorporated herein in the Background of the Invention. For purposes of this invention, one skilled in the art may use any of these known compounds. Alternatively, one may determine in assays known to those skilled in the art whether a particular compound has IIB/IIIa activity. If the assay is positive, then the scaffold will be useful in the present invention. Assays for IIb/IIIa inhibitory activity are well known in the art. […] (WO 093/00095, specifically incorporated herein by reference.) Additionally, the aforementioned binding to ligands can be assessed by one skilled in the art in a platelet aggregation assay.

IIb/IIIa, sequence (P08514 32-887 limits assumed): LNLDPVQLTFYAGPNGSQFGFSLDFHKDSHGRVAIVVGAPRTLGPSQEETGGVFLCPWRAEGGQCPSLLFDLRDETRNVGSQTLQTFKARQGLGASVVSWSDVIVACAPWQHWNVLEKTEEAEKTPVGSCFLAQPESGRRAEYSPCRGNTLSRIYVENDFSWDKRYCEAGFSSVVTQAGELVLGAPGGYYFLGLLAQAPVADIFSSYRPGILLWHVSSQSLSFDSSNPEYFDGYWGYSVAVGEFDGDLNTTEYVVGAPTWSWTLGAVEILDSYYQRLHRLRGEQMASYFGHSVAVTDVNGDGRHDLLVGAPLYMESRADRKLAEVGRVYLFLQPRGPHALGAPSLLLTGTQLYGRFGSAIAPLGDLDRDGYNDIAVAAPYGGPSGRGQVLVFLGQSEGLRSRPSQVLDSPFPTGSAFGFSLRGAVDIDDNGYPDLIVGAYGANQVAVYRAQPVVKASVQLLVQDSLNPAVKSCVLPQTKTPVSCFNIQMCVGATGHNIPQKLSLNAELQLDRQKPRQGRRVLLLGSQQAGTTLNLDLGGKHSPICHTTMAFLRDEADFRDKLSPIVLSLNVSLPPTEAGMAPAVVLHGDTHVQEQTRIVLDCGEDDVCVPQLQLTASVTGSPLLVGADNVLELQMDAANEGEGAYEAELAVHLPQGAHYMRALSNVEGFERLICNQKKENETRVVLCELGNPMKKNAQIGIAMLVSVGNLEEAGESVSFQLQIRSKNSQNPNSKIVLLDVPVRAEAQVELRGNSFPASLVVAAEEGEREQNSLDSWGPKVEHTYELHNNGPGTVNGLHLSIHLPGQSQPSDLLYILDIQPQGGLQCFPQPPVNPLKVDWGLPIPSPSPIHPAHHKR
IIb/IIIa, sequence (P08514 891-1039 limits assumed): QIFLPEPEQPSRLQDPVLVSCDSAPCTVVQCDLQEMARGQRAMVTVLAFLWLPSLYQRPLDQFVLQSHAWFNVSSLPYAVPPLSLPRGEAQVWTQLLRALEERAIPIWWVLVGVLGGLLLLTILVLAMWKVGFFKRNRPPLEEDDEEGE
IIb/IIIa, sequence (P05106 27-788): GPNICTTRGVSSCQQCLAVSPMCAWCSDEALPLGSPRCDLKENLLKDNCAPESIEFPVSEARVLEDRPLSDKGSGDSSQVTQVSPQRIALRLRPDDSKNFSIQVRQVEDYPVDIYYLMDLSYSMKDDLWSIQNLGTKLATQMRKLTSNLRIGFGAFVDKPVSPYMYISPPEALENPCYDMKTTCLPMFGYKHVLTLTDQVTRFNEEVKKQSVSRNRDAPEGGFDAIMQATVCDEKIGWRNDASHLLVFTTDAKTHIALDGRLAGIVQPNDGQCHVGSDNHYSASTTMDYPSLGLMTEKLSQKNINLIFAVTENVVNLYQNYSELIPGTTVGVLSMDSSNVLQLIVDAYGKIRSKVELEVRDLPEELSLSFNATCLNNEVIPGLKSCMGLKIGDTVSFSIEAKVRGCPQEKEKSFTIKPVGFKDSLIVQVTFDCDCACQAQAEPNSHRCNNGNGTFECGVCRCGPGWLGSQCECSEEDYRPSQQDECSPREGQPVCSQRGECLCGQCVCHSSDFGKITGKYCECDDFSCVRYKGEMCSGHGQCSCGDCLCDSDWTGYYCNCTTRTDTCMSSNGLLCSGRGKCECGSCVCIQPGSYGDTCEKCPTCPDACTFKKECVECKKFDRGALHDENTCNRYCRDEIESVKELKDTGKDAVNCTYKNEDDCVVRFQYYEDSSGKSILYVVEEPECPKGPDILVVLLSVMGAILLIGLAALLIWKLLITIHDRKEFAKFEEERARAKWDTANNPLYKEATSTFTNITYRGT

Row | SMILES | IIb/IIIa inhibitory activity
26 | CN(CC(=O)N1CCC(C2CCNCC2)CC1)C(=O)CN(CCC(=O)O)C(=O)c1ccccc1 [Compound B] | potent IIB/IIIa inhibitor

Tested on: not given
Test: not given
Conditions: not given

Row | SMILES | melting point [°C]
27 | COCCC(=O)N(CCC(=O)O)CC(=O)N(CCC(C)C)CC(=O)Nc1ccc(NC(=O)Nc2ccccc2C)cc1 [AY44] | 164 to 166
